Results: patent US7534793B2, “Aminopiperidine quinolines and their azaisosteric analogues with antibacterial activity” (priority 2003, dated 2009)
Counter-ions that a name gives are not always drawn. Like-named read-outs stand apart in the source and are kept apart here.

Assay: MIC of test compounds against various organisms
Assay type: cell-based
[1] = against one or more of the above range of gram positive and gram negative bacteria, read-out: MIC

Row | Structure (SMILES) | MIC [1] [µg/mL] | MIC [µg/mL]
1 | COc1ccc2nccc([C@@H](O)CN3CCC(NCc4cc5cc(Br)ccc5[nH]4)CC3)c2c1 [Example 9, (R)-2-{4-[(5-Bromo-1 H-indol-2-ylmethyl)amino]-piperidin-1-yl}-1-(6-methoxy-quinolin-4-yl)-ethanol, dioxalate] | ≤ 32 | –
2 | COc1ccc2nc(CNC3CCN(C[C@H](O)c4ccnc5ccc(OC)cc45)CC3)sc2c1 [Example 11, (R)-2-{4-[(6-Methoxy-benzothiazol-2-ylmethyl)-amino]-piperidin-1-yl}-1-(6-methoxy-quinolin-4-yl)-ethanol, dioxalate] | ≤ 32 | –
3 | COc1ccc2nccc([C@@H](O)CN3CCC(NCc4nc5cc(F)c(F)cc5[nH]4)CC3)c2c1.O=C(O)C(=O)O.O=C(O)C(=O)O [Example 14, (R)-2-{4-[(5,6-Difluoro-1H-benzimidazol-2-ylmethyl)-amino]-piperidin-1-yl}-1-(6-methoxyquinolin-4-yl)-ethanol, dioxalate] | ≤ 2 | –
4 | COc1ccc2nccc(NC(=O)N3CCC(NCc4nc5c(F)cc(F)cc5[nH]4)CC3)c2n1 [Example 403, 4-[(4,6-Difluoro-1H-benzimidazol-2-ylmethyl)-amino]-piperidine-1-carboxylic acid (6-methoxy-[1,5]naphthyridin-4-yl)-amide, oxalate] | ≤ 2 | –
5 | COc1ccc2nccc(NC(=O)N3CCC(NCc4cc5ccccc5[nH]4)CC3)c2c1 [Example 406, 4-[(1H-Indol-2-ylmethyl)-amino]-piperidine-1-carboxylic acid (6-methoxy-quinolin-4-yl)amide, oxalate] | ≤ 2 | –
6 | COc1cc(F)c2nccc(NC(=O)N3CCC(NCc4cnc5c(O)cccc5n4)CC3)c2c1F [Example 620, 4-[(5-Hydroxy-quinoxalin-2-ylmethyl)amino]-piperidine-1-carboxylic acid (5,8-difluoro-6-methoxy-quinolin-4-yl)-amide oxalate] | ≤ 32 | –
7 | COc1ccc2nccc([C@@H](O)CN3CCC(NCc4cc5cccc(O)c5c(=O)[nH]4)CC3)c2c1 [Example 622, (R)-2-{4-[(8-Hydroxy-1-oxo-1,2-dihydro-isoquinolin-3-ylmethyl)-amino]-piperidin-1-yl}-1-(6-methoxyquinolin-4-yl)-ethanol trihydrochloride] | – | ≤ 0.125
8 | COc1ccc2nccc([C@@H](O)CN3CCC(NCc4cnc5scnc5c4)CC3)c2c1 [Example 623, (R)-1-(6-Methoxy-quinolin-4-yl)-2-{4-[(thiazolo[5,4-b]pyridin-6-ylmethyl)amino]-piperidin-1-yl}-ethanol dioxalate] | ≤ 2 | –
9 | COc1ccc2nccc([C@@H](O)CN3CCC(NCc4cc5cccnc5n4CC(=O)O)CC3)c2c1 [Example 624, (R)-1-(6-Methoxy-quinolin-4-yl)-2-{4-[(1-carboxymethyl-1H-pyrrolo[2,3-b]pyridine-2-ylmethyl)-amino]-piperidin-1-yl}-ethanol trihydrochloride] | – | ≤ 32
10 | COc1ccc2nccc([C@@H](O)CN3CCC(N(CC(=O)O)Cc4cc5cccnc5n4CC(=O)O)CC3)c2c1 [Example 625, (R)-1-(6-Methoxy-quinolin-4-yl)-2-{4-[carboxymethyl-(1-carboxymethyl-1H-pyrrolo[2,3-b]pyridine-2-ylmethyl)-amino]-piperidin-1-yl}-ethanol dihydrochloride] | – | ≤ 32
